Data on one molecule can be found in patent US20210015793A1, “COMPOUNDS FOR TREATING CNS- AND NEURODEGENERATIVE DISEASES” (ETH ZURICH, priority 2018, published 2021).

The subject of one series is MPP1. In words: Immunoblot of MPP1 content in PBMN cells of elderly human research participants. It is filed as in vivo. To be noted: 28 days, daily dose of 60 mg. The source says:
For protein separation by SDS-PAGE (Laemmli system), the protein pellet can be dissolved in SDS-PAGE sample buffer supplemented with SDS. As an alternative, sample buffer for native gel electrophoresis can be added. According to the original protocol, the SDS-PAGE Laemmli sample buffer contains 2% SDS, 0.1 M DTT (or 5% mercaptoethanol). To improve disaggregation of aggregated proteins, the buffer can be supplemented without or with urea ranging from about 0 M-8 M, preferably about 6 M urea and incubated for about 10 min to 24 h, preferably about 90 min at room temperature. Proteins can be stored frozen (about […]) at a concentration ranging from about 0.01-100 mg/ml, preferably about 0.5 mg-1 mg/ml, for further use. It may be further desirable to dilute the solubilisate, for example, diluting the supernatant solubilisate by 1:1-1:20, preferably 1:5, in a suitable buffer as described above (preferably supplemented with protease inhibitors). Before immunoblot detection of proteins, proteins are separated. For separation of proteins, one- or two-dimensional SDS-PAGE can be applied. […]
A general note: In western blotting, separated proteins are transferred to a membrane and probed.

A short description of series [1]: Serum concentration by HPLC in healthy human research participants (phase-1 study). To be noted: for concentration at 24 h: both sexes, human, serum, oral, 60 mg/day. The format is in vivo. On the procedure: Dog serum concentrations of Compound-1, Compound-1F and Compound-4 were determined with serum isolated from the blood of German shepherd dogs (age: 8-9 months) taken at different time points (2 h, 4 h, 6 h, 8, 10 h, 24 h) after oral drug intake. The steady-state serum concentrations of Compound-1, Compound-1F and Compound-4 were determined in mice with blood isolated at the end of the study by cardiac puncture. Serum proteins were removed by acetonitrile precipitation, and compounds were extracted by chloroform before separation on an HPLC-C18 column (Poroshell 120 EC-C18, Agilent) with an HPLC system (Agilent 1100 Series) and detection at OD 280 nm, for Compound-1 and Compound-1F. Detection of Compound-4 was performed at OD 310 nm. The same extraction method was also used to determine Compound-1F in the serum of healthy human research participants. Dog hematology and biochemical parameters were determined by the Center of Applied Analytical and Veterinary Studies, Cairo, Egypt. ECG and blood pressure were measured by Dr. Mohamed Elsaed, Electrocardiography Unit, Faculty of Veterinary Medicine, Cairo University. The study was approved by the ethical committee of the Center of Applied and Veterinary Studies, Cairo, Egypt. Clinical laboratory parameters of human research participants were determined by the Rabaa El Adaweya Medical Central Hospital, Cairo, Egypt.
Study design: The study was a three-part phase-1, randomized, placebo-controlled study of Compound-1F. The primary end-point was safety and tolerability. Secondary objectives were plasma pharmacokinetics data (part-1, part-2, part-3) and peripheral blood mononuclear cell MPP1 status (part-3).
The first part (part-1) was a single ascending dose-effect study with three cohorts of 4 healthy research participants each, who received a single dose of 20 mg, 40 mg or 60 mg in subsequent cohorts. Three drug-treated and one placebo-treated subjects were randomized in each cohort (2 males, 2 females; age: 35-65 years). After completion of safety assessment, blood was drawn for analysis of pharmacokinetics data.
In the second part (part-2) of the study, the daily dose was increased every two days until the final dose of 60 mg/day was reached, i.e. the daily dose was 20 mg on day-1 and day-2, 40 mg on day-3 and day-4, and 60 mg on day-5 until day-14. Blood was drawn before study begin for analysis of laboratory parameters and on day-14 for analysis of laboratory parameters and determination of pharmacokinetics data, at the indicated time points after administration of the last dose of 60 mg. All study participants (n=10; 7 males, 3 females; Caucasians; age: 37-66 years; 8 participants received drug, and two received placebo) were healthy and had the possibility to withdraw from the study at any time. All study participants wanted to complete the study.
In the third part (part-3) of the study, a cohort of 8 healthy elderly voluntary research participants (7 males, 1 female; age 60-73 years; all Caucasians) received a daily oral dose of 60 mg of Compound-1F for 28 days (6 participants received drug, 2 placebo). In part-3 of the study, blood was drawn before study begin for analysis of clinical laboratory parameters and MPP1 status, and on day-28 for analysis of laboratory parameters and MPP1 status, and 24 h after the last drug intake for measurement of serum concentration of Compound-1F. […]

Where two headings read alike, the source gives them in different places.

`O=C(C1=C(O)C(c2ccc(F)cc2)N(c2ccc3c(c2)OCO3)C1=O)C1CC1` (stereo not drawn) [Compound-1F, 1-(1,3-Benzodioxol-5-yl)-4-(cyclopropanecarbonyl)-2-(4-fluorophenyl)-3-hydroxy-2H-pyrrol-5-one]: in the series with MPP1, the “senescence marker protein MPP1 in PBMN cells vs before treatment” value was “significant decrease”. Further, the concentration at 24 h in series [1] (elderly research participants, 28 days once daily 60 mg, read-out: steady-state serum concentration at 24 h after the last drug intake) amounted to 1540 ± 310 ng/mL; in series [1] (healthy humans, repeated dosing 60 mg/day, read-out: serum concentration at 24 h after intake of the last dose) it was 1470 ± 330 ng/mL. For the same molecule, the “dose dependence of serum concentration” value in series [1] (healthy humans, oral Compound-1F 20, 40, 60 mg) is “dose-dependent increase”. The “peak serum concentration at t=6 h” value in series [1] (healthy humans, repeated dosing 60 mg/day, n=8) came out at 5.33 ± 0.76 µg/mL. The “time of peak serum concentration after drug intake” value in series [1] (healthy humans, repeated dosing with 60 mg/day) was determined as 6 h.
